Columns and labels:
APETALA1 (AP1) = experiment: AP1 induction (qRT-PCR, pAP1:AP1-GFP imaging) in GR-fusion transgenic plants after treatment; assay type: in vivo, Arabidopsis thaliana; conditions: 4 hours
Experimental: For mock treatment, 0.01% ethanol (EtOH) with 0.01% Silwet L-77 was used as control. […] For test of AP1 induction in single or double hemizygous transgenic lines (FIG. 4A, C, and figure S9) treatments were performed by spraying 16-day-old plants grown on plates once with 10 μM dexamethasone and/or 10 μM paclobutrazol. Tissues were harvested after 4 hours. […] 16-day-old 35S:AlcR pAlcA:mir156f/- 35S:LFY-GR/- plants were sprayed with 10 μM dexamethasone plus 10 μM paclobutrazol and exposed to ethanol vapor or water control. Tissues were harvested after 4 hours. […]
For qRT-PCR, RNA was isolated form entire plants after the switch to reproduction using TRIzol reagent (Invitrogen) and RNeasy Mini kits (Qiagen) and processed as previously described (45). […] Quantitative real-time PCR was performed using Power SYBR green mastermix (Applied Biosystems). The mean and standard error were determined using three technical replicates from one representative experiments. […]
For imaging of GFP fluorescence, inflorescence apices were dissected to remove older flowers and imaged using a Leica confocal microscope (Leica, LCS SL) equipped with an argon-krypton ion laser with the appropriate filter sets for visualizing GFP. […]

Arabidopsis = experiment: Number of rosette leaves (vegetative phase) and of cauline leaves and branches (first inflorescence phase) after hormone or inhibitor treatment; assay type: in vivo, Arabidopsis thaliana
Experimental: Plants were grown at 23° C. in a 16 h light/8 h dark cycle. The following plant lines were previously described: lfy-1 null and lfy-2 hypomorph mutants; lfy-6 null mutants, 35S:LFY-GR; 35S:LFY; gal-3; gai; pRGA:RGA-GFP; pRGA:RGA-HA; gal-3 rgl2-1 rga-2 35S:RGA-GR; pSPL9:rSPL-FLAG; 35S:AlcR pAlcA:mir156f; and 35S:SPL9-GR and pAP1:AP1-GFP. […] Most plants were in the Columbia background except for 35S:LFY-GR, pRGA:RGA-GFP, and lfy-6 mutants, which were in the Landsberg erecta background. To avoid comparisons of plants in different ecotype backgrounds, we performed crosses between homozygous transgenic plants and conducted all subsequent analyses in the F1 population. […] Statistical analyses were performed on plant phenotypes that are normally distributed. The population size was determined by expedience (tissue or plant amount that could reasonably be obtained).
For mock treatment, 0.01% ethanol (EtOH) with 0.01% Silwet L-77 was used as control. […] For paclobutrazol treatment in wild type to examine the number of rosette and cauline leaves formed (figure S8), wild-type plants were first germinated on MS plates. After 4 days plants were transferred either to MS plates containing 1 μM paclobutrazol or to control MS plates and grown for 6 more days. At day 10, the plants were transplanted to soil. […] For test of the number of rosette or cauline leaves produced under conditions of increased DELLA accumulation/activity (FIG. 4E), WT, 35S:LFY/-, pSPL9:rSPL9-FLAG/-, and 35S:LFY/- pSPL9:rSPL9-FLAG/- were first germinated on MS plates, followed by transfer to MS plates containing 1 μM paclobutrazol or to control MS plates from day 4 to day 10 of age. At day 10, the plants were transplanted onto soil.

[1] = wild-type plants, MS plates containing 1 μM paclobutrazol day 4 to day 10, versus control plates

With `CC(C)(C)[C@@H](O)[C@@H](Cc1ccc(Cl)cc1)n1cncn1` (racemic) [paclobutrazol] the “pAP1:AP1-GFP expression in young flower primordia” value (APETALA1 (AP1); 35S:LFY-GR plants, Dex 10 μM plus PAC 10 μM, confocal imaging) was “increase in AP1-GFP”, the “production of AP1 in young flower primordia” value (APETALA1 (AP1); LFY-GR plants, 10 μM paclobutrazol simultaneously with 10 μM dexamethasone, relative to either alone) was “increased production of AP1” and the “number of cauline leaves formed” value (Arabidopsis; 35S:LFY pSPL9:rSPL9-FLAG plants, 1 μM paclobutrazol day 4 to day 10, mean±SEM, 35S:LFY plants 2.5±0.2) was 0.3±0.1. The “number of branches and cauline leaves (duration of the first inflorescence phase)” value (Arabidopsis; [1]) was “fewer” and the “number of rosette leaves (duration of the vegetative phase)” value (Arabidopsis; [1]) was “more”.
